This is an account of results in patent US8835429B2, “Pyrimidine compounds, their use as mTOR kinase and Pl3 kinase inhibitors, and their syntheses” (Wyeth LLC, priority 2009, dated 2014).

In assay [1] the test system is MDA468. Kind of assay: In vitro cell growth assay (MTS), MDA468. It counts as cell-based. The note with it: 72 h, human breast line MDA468, three days after drug treatment, read-out: MDA IC50. As to the method: (§1) The cell lines used were human prostate lines LNCap and PC3MM2, human breast lines MDA468 and MCF7, human renal line HTB44 (A498), human colon line HCT116, and human ovarian line OVCAR3. Cells were plated in 96-well culture plates. One day following plating, the inhibitors were added to cells. Three days after drug treatment, viable cell densities were determined by metabolic conversion (by viable cells) of the dye MTS, a well-established cell proliferation assay. The assays were performed using an assay kit purchased from Promega Corp. (Madison, Wis.) following the protocol supplied with the kit. The MTS assay results were read in a 96-well plate reader by measuring absorbance at 490 nm. The effect of each treatment was calculated as percent of control growth relative to the vehicle-treated cells grown in the same culture plate.

For assay [2], the system named is LNCap. Kind of assay: In vitro cell growth assay (MTS), LNCap. It counts as cell-based. The conditions noted are these: LNCaP, 72 h, human prostate line, three days after drug treatment. As to the method: as §1
Assay [3] deals with PI3K-alpha (Homo sapiens, UniProt P42336). Description: PI3K-alpha fluorescence polarization assay. Type of assay: biochemical. The note with it: 20 μM PIP2, 25 μM ATP; read-out: PI3Kα IC50. The protocol:
The reaction buffer was 20 mM HEPES, pH 7.5, 2 mM MgCl2, 0.05% CHAPS; and 0.01% βME (added fresh). The stop/detection buffer was 100 mM HEPES, pH 7.5, 4 mM EDTA, 0.05% CHAPS; ATP 20 mM in water; PIP2 (diC8, Echelon, Salt Lake City Utah cat #P-4508) 1 mM in water (MW=856.5). The GST-GRP was 1.75 mg/mL or 1.4 mg/mL in 10% glycerol. The red detector (TAMRA) was 2.5 μM. Nunc 384-well black polypropylene fluorescent plates were used for PI3K assays.
The assay is run by placing 5 μL of diluted enzyme per well, then 5 μL of diluted compound (or 9.5 μL enzyme then 0.5 μL compound in DMSO) is added and mixed. Then, 10 μL substrate is added to start the reaction. The samples are incubated 30-60 minutes, then the reaction is stopped by adding 20 μL stop/detector mix. PI3K is diluted with reaction buffer (e.g., 5 μL or 7.5 μL PI3K into 620 μL reaction buffer), and 5 μL of diluted enzyme is used per well. A 5 μL portion of reaction buffer or of drug diluted in buffer (e.g., 4 μL/100 so final DMSO is 1% in reaction) is added to each. Pipetting up and down mixes the samples. Alternatively, the enzyme can be diluted to 1215 μL. In this case 9.8 μL is added per well and 0.2 μL compound is added in DMSO.
To prepare 1 mL of substrate solution, 955 μL reaction buffer, 40 μL PIP2, and 2.5 μL ATP are mixed. 10 μL of substrate is added to each well to start the reaction. […] The stop/detector mix is prepared by mixing 4 μL red detector and 1.6 μL or 2.0 μL GST-GRP with 1 mL stop buffer, which results in 10 nM probe and 70 nM GST-GRP. 20 μL of the stop/detector mix is added to each well to stop the reaction. The plates are read after 30-90 minutes keeping the red probe solutions dark. For the zero time point, stop/detector mix is added to the enzyme just before adding substrate. For an extra control, stop/detector mix is added to buffer (no enzyme) and substrate or to just buffer (no substrate). […] The recommended reaction has 0.06 μL per 20 μL (0.015 μg/20 μL) or 0.01125 μg/15 μL or 0.75 μg/mL.
Plates are read on machines with filters for TAMRA. The units are mP with no enzyme controls reading app 190-220 mP units. Fully active enzyme reduces fluorescence polarization down to 70-100 mP after 30 minutes. An active compound raises the mP values halfway to control or to 120-150 mP units.
On the technique in general: In fluorescence polarisation assays a small probe gives low polarisation when free and higher when bound to something large.

The target in assay [4] is mTOR (Homo sapiens, UniProt P42345). Description: mTOR enzyme assay (DELFIA, purified FLAG-TOR, His6-S6K substrate). The note with it: 100 μM ATP, 2 hours. It counts as biochemical. The arrangement: FLAG.
Chain of mTOR (P42345 1360-2549 limits assumed): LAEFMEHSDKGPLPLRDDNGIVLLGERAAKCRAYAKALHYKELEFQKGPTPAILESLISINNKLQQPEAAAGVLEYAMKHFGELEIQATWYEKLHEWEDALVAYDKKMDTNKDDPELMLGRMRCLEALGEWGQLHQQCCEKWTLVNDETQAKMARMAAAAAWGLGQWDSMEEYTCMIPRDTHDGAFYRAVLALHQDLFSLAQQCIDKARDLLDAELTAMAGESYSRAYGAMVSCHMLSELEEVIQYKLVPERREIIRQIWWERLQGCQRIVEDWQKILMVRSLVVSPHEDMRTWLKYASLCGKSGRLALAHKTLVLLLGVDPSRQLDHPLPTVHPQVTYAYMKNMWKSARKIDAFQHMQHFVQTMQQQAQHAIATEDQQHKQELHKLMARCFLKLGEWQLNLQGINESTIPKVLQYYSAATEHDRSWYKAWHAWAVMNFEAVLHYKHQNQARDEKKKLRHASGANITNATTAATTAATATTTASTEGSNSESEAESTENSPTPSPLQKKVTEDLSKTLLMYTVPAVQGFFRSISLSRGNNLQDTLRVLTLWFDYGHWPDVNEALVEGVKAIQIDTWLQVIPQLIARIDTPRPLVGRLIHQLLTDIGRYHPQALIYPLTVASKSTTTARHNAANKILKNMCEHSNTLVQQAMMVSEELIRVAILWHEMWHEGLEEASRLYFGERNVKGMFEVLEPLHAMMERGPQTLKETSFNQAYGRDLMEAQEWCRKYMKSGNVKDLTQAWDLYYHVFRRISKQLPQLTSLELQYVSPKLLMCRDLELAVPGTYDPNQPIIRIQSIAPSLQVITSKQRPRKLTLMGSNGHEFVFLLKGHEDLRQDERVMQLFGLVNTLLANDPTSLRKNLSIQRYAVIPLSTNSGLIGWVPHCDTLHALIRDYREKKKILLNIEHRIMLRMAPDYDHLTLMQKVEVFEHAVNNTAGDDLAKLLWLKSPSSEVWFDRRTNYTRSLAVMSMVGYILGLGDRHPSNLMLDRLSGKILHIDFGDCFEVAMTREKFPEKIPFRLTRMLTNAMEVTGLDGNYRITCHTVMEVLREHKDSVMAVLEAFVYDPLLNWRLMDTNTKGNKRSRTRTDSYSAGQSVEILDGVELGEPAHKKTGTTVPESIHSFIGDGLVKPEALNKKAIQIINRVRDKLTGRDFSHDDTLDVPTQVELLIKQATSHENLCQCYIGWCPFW

The structures appear in SMILES notation.

Broadly, the IC50 is the point on the concentration scale where inhibition reaches its midpoint.

Chain of PI3K-alpha (P42336 whole entry, species assumed): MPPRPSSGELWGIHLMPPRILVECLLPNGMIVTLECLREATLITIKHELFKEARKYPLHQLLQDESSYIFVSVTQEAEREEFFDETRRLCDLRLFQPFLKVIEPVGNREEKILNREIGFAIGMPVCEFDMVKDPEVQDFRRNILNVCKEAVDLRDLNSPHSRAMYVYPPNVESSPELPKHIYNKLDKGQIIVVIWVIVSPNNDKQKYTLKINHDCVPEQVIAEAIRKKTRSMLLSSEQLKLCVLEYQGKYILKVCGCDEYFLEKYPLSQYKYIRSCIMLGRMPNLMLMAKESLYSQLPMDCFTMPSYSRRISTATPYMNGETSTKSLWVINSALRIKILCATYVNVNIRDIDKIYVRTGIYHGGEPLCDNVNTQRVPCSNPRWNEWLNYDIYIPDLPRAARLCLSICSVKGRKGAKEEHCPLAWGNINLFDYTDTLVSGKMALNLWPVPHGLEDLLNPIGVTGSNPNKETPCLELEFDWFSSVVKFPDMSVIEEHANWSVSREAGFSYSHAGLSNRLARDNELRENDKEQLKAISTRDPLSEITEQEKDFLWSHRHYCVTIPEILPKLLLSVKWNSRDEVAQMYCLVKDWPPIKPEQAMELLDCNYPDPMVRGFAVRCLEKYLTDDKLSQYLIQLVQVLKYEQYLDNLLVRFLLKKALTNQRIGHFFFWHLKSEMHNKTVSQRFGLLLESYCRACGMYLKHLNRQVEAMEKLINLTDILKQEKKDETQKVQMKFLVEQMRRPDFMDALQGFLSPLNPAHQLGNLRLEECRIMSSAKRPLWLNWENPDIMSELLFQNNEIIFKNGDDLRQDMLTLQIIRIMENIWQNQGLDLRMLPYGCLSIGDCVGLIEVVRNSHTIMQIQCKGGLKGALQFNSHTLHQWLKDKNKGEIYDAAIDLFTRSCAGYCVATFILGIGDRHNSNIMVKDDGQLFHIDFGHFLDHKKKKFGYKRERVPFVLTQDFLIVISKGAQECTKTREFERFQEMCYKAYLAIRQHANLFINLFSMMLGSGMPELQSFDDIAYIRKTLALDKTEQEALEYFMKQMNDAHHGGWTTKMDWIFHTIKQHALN
Chain of PI3K-alpha (P27986 whole entry partner, species assumed): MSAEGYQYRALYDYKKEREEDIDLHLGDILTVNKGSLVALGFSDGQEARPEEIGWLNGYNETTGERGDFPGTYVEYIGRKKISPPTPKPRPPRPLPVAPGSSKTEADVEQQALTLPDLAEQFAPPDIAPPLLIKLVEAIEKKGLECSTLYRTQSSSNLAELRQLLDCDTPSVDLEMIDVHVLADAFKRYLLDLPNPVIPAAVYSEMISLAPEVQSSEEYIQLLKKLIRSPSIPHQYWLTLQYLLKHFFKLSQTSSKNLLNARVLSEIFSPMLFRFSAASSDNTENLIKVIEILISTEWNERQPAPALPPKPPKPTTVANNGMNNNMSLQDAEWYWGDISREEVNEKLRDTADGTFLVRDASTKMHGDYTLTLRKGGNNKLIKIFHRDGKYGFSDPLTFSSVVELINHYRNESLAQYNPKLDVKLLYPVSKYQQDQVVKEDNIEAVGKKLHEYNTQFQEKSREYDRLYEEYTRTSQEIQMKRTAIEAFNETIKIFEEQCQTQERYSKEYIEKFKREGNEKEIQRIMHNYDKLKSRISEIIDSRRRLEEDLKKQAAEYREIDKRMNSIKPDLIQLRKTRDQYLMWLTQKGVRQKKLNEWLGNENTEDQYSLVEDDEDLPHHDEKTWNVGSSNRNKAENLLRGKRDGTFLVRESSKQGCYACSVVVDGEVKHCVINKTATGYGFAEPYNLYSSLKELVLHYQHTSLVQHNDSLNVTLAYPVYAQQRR

For `CN1CCN(C(=O)c2ccc(NC(=O)Nc3ccc(-c4nc(N5C6CCC5COC6)cc(N5C6CCC5COC6)n4)cc3)cc2)CC1` [1-[4-(4,6-di-3-oxa-8-azabicyclo[3.2.1]oct-8-ylpyrimidin-2-yl)phenyl]-3-{4-[(4-methylpiperazin-1-yl)carbonyl]phenyl}urea], the IC50 in assay [1] was 0.8 nM; in assay [2], not above 0.8 nM; in assay [3] it was 129 nM; in assay [4], 0.94 nM.
With `CN1CCN(c2ccc(NC(=O)Nc3ccc(-c4nc(-c5ccccc5)cc(N5CC6CCC(C5)O6)n4)cc3)cc2)CC1` [1-[4-(4-methylpiperazin-1-yl)phenyl]-3-{4-[4-(8-oxa-3-azabicyclo[3.2.1]oct-3-yl)-6-phenylpyrimidin-2-yl]phenyl}urea], the concentration for half-maximal inhibition (IC50) in assay [1] was 270 nM; in assay [2], 78 nM; in assay [3] it was 2430 nM; in assay [4], 17.5 nM.
As to `CC(C)Nc1cc(N2C3CCC2COC3)nc(-c2ccc(NC(=O)Nc3ccc(N4CCN(C)CC4)nc3)cc2)n1` [1-{4-[4-(isopropylamino)-6-(3-oxa-8-azabicyclo[3.2.1]oct-8-yl)pyrimidin-2-yl]phenyl}-3-[6-(4-methylpiperazin-1-yl)pyridin-3-yl]urea], the half-inhibitory concentration (IC50) turned out to be 100 nM in assay [1], 90 nM in assay [2], 3870 nM in assay [3] and 4.2 nM in assay [4].
In the same order, the values of `CS(=O)(=O)Cc1cc(N2CC3CCC(C2)O3)nc(-c2ccc(NC(=O)Nc3cccnc3)cc2)n1` [1-(4-{4-[(methylsulfonyl)methyl]-6-(8-oxa-3-azabicyclo[3.2.1]oct-3-yl)pyrimidin-2-yl}phenyl)-3-pyridin-3-ylurea] are 170 nM, 195 nM, 341 nM and 1.02 nM.
In the same order, the values of `O=C(Nc1ccncc1)Nc1ccc(-c2nc(-c3ccccc3)cc(N3CC4CCC(C3)O4)n2)cc1` [1-{4-[4-(8-oxa-3-azabicyclo[3.2.1]oct-3-yl)-6-phenylpyrimidin-2-yl]phenyl}-3-pyridin-4-ylurea] are 390 nM, 290 nM, 229 nM and 5.6 nM.
As to `O=C(Nc1ccncc1)Nc1ccc(-c2cc(N3CC4CCC(C3)O4)nc(-c3ccc(NC(=O)Nc4ccncc4)cc3)n2)cc1` [N,N″-{[6-(8-oxa-3-azabicyclo[3.2.1]oct-3-yl)pyrimidine-2,4-diyl]di-4,1-phenylene}bis(3-pyridin-4-ylurea)], the IC50 in assay [1] is 780 nM; in assay [2], 220 nM; in assay [3], 69.5 nM; in assay [4] it was 3.2 nM.
In the same order, the values of `CN(C)CCOc1ccc(NC(=O)Nc2ccc(-c3nc(CS(C)(=O)=O)cc(N4CC5CCC(C4)O5)n3)cc2)cc1` [1-{4-[2-(dimethylamino)ethoxy]phenyl}-3-(4-{4-[(methylsulfonyl)methyl]-6-(8-oxa-3-azabicyclo[3.2.1]oct-3-yl)pyrimidin-2-yl}phenyl)urea] are 165 nM, 90 nM, 405 nM and 5 nM.
In the case of `CCNC(=O)Nc1ccc(-c2cc(N3CC4CCC(C3)O4)nc(-c3ccc(NC(=O)NCC)cc3)n2)cc1` [N′,N′″-{[6-(8-oxa-3-azabicyclo[3.2.1]oct-3-yl)pyrimidine-2,4-diyl]di-4,1-phenylene}bis(1-ethylurea)], the IC50 in assay [1] was determined as 790 nM; in assay [2], 310 nM; in assay [3] it was 1660 nM; in assay [4] it was 1.85 nM.
In the same order, the values of `O=C(Nc1ccc(-c2nc(-c3ccccc3)cc(N3CC4CCC(C3)O4)n2)cc1)OCCO` [2-hydroxyethyl {4-[4-(8-oxa-3-azabicyclo[3.2.1]oct-3-yl)-6-phenylpyrimidin-2-yl]phenyl}carbamate] are 5500 nM, 600 nM, 452 nM and 21.5 nM.
In the same order, the values of `CC(C)Nc1cc(N2C3CCC2COC3)nc(-c2ccc(NC(=O)Nc3ccc(OCCN(C)C)cc3)cc2)n1` [1-{4-[2-(dimethylamino)ethoxy]phenyl}-3-{4-[4-(isopropylamino)-6-(3-oxa-8-azabicyclo[3.2.1]oct-8-yl)pyrimidin-2-yl]phenyl}urea] are 710 nM, 50 nM, 2380 nM and 3.6 nM.
Take `CN1CCN(c2ccc(NC(=O)Nc3ccc(-c4cc(N5CC6CCC(C5)O6)nc(-c5ccc(NC(=O)Nc6ccc(N7CCN(C)CC7)cc6)cc5)n4)cc3)cc2)CC1` [N′,N′″-{[6-(8-oxa-3-azabicyclo[3.2.1]oct-3-yl)pyrimidine-2,4-diyl]di-4,1-phenylene}bis{1-[4-(4-methylpiperazin-1-yl)phenyl]urea}]: the 50% inhibitory concentration (IC50) in assay [1] was 760 nM; in assay [2], 300 nM; in assay [3] it was 1020 nM; in assay [4], 2.15 nM.
On to `CC(C)Oc1cc(N2CC3CCC(C2)O3)nc(-c2ccc(NC(=O)NC3CC3)cc2)n1` [1-cyclopropyl-3-{4-[4-(1-methylethoxy)-6-(8-oxa-3-azabicyclo[3.2.1]oct-3-yl)pyrimidin-2-yl]phenyl}urea], for which the half-inhibitory concentration (IC50) in assay [1] stood at 1800 nM; in assay [2], 290 nM; in assay [3] it was 7200 nM; in assay [4] it was 4.45 nM.
In the same order, the values of `CS(=O)(=O)Cc1cc(N2CC3CCC(C2)O3)nc(-c2ccc(NC(=O)Nc3ccncc3)cc2)n1` [1-(4-{4-[(methylsulfonyl)methyl]-6-(8-oxa-3-azabicyclo[3.2.1]oct-3-yl)pyrimidin-2-yl}phenyl)-3-pyridin-4-ylurea] are 75 nM, 150 nM, 236 nM and 0.825 nM.
For the compound `O=C(Nc1ccc(-c2nc(N3CC4CCC(C3)O4)cc(C(F)(F)F)n2)cc1)NC1CC1` [1-cyclopropyl-3-{4-[4-(8-oxa-3-azabicyclo[3.2.1]oct-3-yl)-6-(trifluoromethyl)pyrimidin-2-yl]phenyl}urea], the 50% inhibitory concentration (IC50) in assay [1] is 3000 nM; in assay [2], 450 nM; in assay [3], 8160 nM; in assay [4], 10.4 nM.
In the same order, the values of `CN1CCN(c2ccc(NC(=O)Nc3ccc(-c4cc(N5CC6CCC(C5)O6)nc(N5CC6CCC(C5)O6)n4)cc3)cc2)CC1` [1-[4-(2,6-di-8-oxa-3-azabicyclo[3.2.1]oct-3-ylpyrimidin-4-yl)phenyl]-3-[4-(4-methylpiperazin-1-yl)phenyl]urea] are 160 nM, 40 nM, 588 nM and 9.55 nM.
In the same order, the values of `O=C(Nc1ccc(-c2cc(N3CC4CCC(C3)O4)nc(N3CC4CCC(C3)O4)n2)cc1)NC1CC1` [1-cyclopropyl-3-[4-(2,6-di-8-oxa-3-azabicyclo[3.2.1]oct-3-ylpyrimidin-4-yl)phenyl]urea] are 6000 nM, 800 nM, 3930 nM and 38.5 nM.
In the same order, the values of `CCNC(=O)Nc1ccc(-c2nc(-c3ccccc3)cc(N3CC4CCC(C3)O4)n2)cc1` [1-ethyl-3-{4-[4-(8-oxa-3-azabicyclo[3.2.1]oct-3-yl)-6-phenylpyrimidin-2-yl]phenyl}urea] are 1900 nM, 450 nM, 2050 nM and 11 nM.
